Assays:
Assay type in all cases: cell-based
[1] = test system: sigm5; assay: In vitro ADC activity, AML cell lines, CellTiter-Glo (Example 20); conditions: sigm5, 5 days
[2] = test system: ociaml2; assay: as above; conditions: ociaml2, 5 days
[3] = test system: 5340hx; assay: as above; conditions: 5 days
[4] = test system: NCI-H929; assay: CellTiter-Glo proliferation assay, single agent and with venetoclax (Example 19); conditions: 5 days; for IC50: Homo sapiens, NCI-H929, 120 h; for Amax: in %
Description: (§1) The CD48 MCL-1 antibody drug conjugates were tested against four endogenous cancer cell lines. KMS-21 BM (JCRB No. JCRB1185 cultured in RPMI-1640+10% FBS), KMS-20 (JCRB No. JCRB1196 cultured in RPMI-1640+10% FBS), KMS-27 (JCRB No. JCRB1188 cultured in RPMI-1640+10% FBS), and NCI-H929 (ATCC No. CRL-9068 cultured in RPMI-1640+10% FBS+0.05 mM 2-mercaptoethanol).
(§2) The ability of the CD48 MCL-1 antibody drug conjugates to inhibit cell proliferation and survival was assessed using the Promega CellTiter-Glo® proliferation assay. Cell lines were cultured in media that is optimal for their growth at 5% CO2, 37° C. in a tissue culture incubator. Prior to seeding for the proliferation assay, the cells were split at least 2 days before the assay to ensure optimal growth density. On the day of seeding, suspension cells were harvested. Cell viability and cell density were determined using a cell counter (Vi-Cell XR Cell Viability Analyzer, Beckman Coulter). […] Cells were seeded at a density of 1,000 cells per well in 45 μL of standard growth media. Plates were incubated at 5% CO2, 37° C. overnight in a tissue culture incubator. The next day, free MCL-1 payload (P1), targeting MCL-1 ADCs and non-targeting isotype ADCs were prepared at 10× in standard growth media. The prepared drug treatments were then added to the cells resulting in final concentrations of 0.0005-300 nM and a final volume of 50 μL per well. Each drug concentration was tested in quadruplets. Two conditions were evaluated for each compound. The compounds were evaluated as single agents and in combination with venetoclax. The venetoclax was dosed at either 5 nM or 50 nM final concentration. Plates were incubated at 5% CO2, 37° C. for 5 days in a tissue culture incubator, after which cell viability was assessed through the addition of 25 μL of CellTiter Glo® (Promega, cat #G7573), a reagent which lyses cells and measures total adenosine triphosphate (ATP) content. Plates were incubated at room temperature for 10 minutes to stabilize luminescent signals prior to reading using a luminescence reader (EnVision Multilabel Plate Reader, PerkinElmer). To evaluate the effect of the drug treatments, luminescent counts from wells containing untreated cells (100% viability) were used to normalize treated samples. A variable slope model was applied to fit a nonlinear regression curve to the data in GraphPad PRISM version 7.02 software. IC50 and Amax values were extrapolated from the resultant curves.

[5] = test system: KMS-27; assay: as above; conditions: 5 days; for IC50: KMS-27, 120 h; for Amax: in %
Description: as §1, §2

[6] = test system: KMS-21 BM; assay: as above; conditions: 5 days; for IC50: 120 h; for Amax: in %
Description: as §1, §2

[7] = test system: KMS-20; assay: as above; conditions: 5 days; for IC50: KMS-20, 120 h; for Amax: in %
Description: as §1, §2

[8] = test system: nomo1; assay: In vitro ADC activity, AML cell lines, CellTiter-Glo (Example 20); conditions: nomo1, 5 days
[9] = test system: kasumi1; assay: as above; conditions: kasumi1, 5 days

Compound: COc1ccccc1-c1nccc(COc2ccccc2C[C@@H](Oc2ncnc3sc(-c4ccc(F)cc4)c(-c4ccc(OCCN5CCN(C)CC5)c(Cl)c4C)c23)C(=O)O)n1 [P1, (2R)-2-[5-[3-chloro-2-methyl-4-[2-(4-methylpiperazin-1-yl)ethoxy]phenyl]-6-(4-fluorophenyl)thieno[2,3-d]pyrimidin-4-yl]oxy-3-[2-[[2-(2-methoxyphenyl)pyrimidin-4-yl]methoxy]phenyl]propanoic acid]
- GI50 ([1]; Homo sapiens, SIG-M5, 120 h): 118 nM
- Amax ([1]; in % (unit assumed)): −21
- GI50 ([2]; Homo sapiens, OCI-AML2, 120 h): 127 nM
- Amax ([2]; in % (unit assumed)): −50
- GI50 ([3]; 120 h): 1 nM
- Amax ([3]; in % (unit assumed)): −92
- IC50 ([4]; NCI-H929, + 5 nM Venetoclax): 8.69 nM
- IC50 ([4]; NCI-H929, + 50 nM Venetoclax): 8.29 nM
- IC50 ([4]; NCI-H929, single agent): 10.7 nM
- Amax ([4]; NCI-H929, + 5 nM Venetoclax): 91.53
- Amax ([4]; NCI-H929, + 50 nM Venetoclax): 103.4
- Amax ([4]; NCI-H929, single agent): 90.09
- IC50 ([5]; KMS-27, + 5 nM Venetoclax): 20.1 nM
- IC50 ([5]; KMS-27, + 50 nM Venetoclax): 12 nM
- IC50 ([5]; KMS-27, single agent): 153 nM
- Amax ([5]; KMS-27, + 5 nM Venetoclax): 110.5
- Amax ([5]; KMS-27, + 50 nM Venetoclax): 114.7
- IC50 ([6]; + 5 nM Venetoclax): 5.57 nM
- IC50 ([6]; + 50 nM Venetoclax): 5.23 nM
- IC50 ([6]; single agent): 5.73 nM
- Amax ([6]; + 5 nM Venetoclax): 100.8
- Amax ([6]; + 50 nM Venetoclax): 99.41
- Amax ([6]; single agent): 94.25
- IC50 ([7]; KMS-20, + 5 nM Venetoclax): 30.6 nM
- IC50 ([7]; KMS-20, + 50 nM Venetoclax): 36.2 nM
- IC50 ([7]; KMS-20, single agent): 34.7 nM
- Amax ([7]; KMS-20, + 5 nM Venetoclax): 75.53
- Amax ([7]; KMS-20, + 50 nM Venetoclax): 82.77
- Amax ([7]; KMS-20, single agent): 65.65
- GI50 ([8]; Homo sapiens, NOMO-1, 120 h): 1 nM
- Amax ([8]; in % (unit assumed)): −80
- GI50 ([9]; Homo sapiens, Kasumi 1, 120 h): 37 nM
- Amax ([9]; in % (unit assumed)): −87

Source: patent publication US20230092679A1, “MCL-1 INHIBITOR ANTIBODY-DRUG CONJUGATES AND METHODS OF USE” (NOVARTIS AG, priority 2019, published 2023)
